From patent US20260285850A1, “SUBSTITUTED OXAZOLIDINONES AND IMIDAZOLINONES AS HERBICIDES” (FMC CORPORATION, priority 2023, published 2026)

Key:
Format in all cases: in vivo
[1] = tested on: green foxtail (Setaria viridis); assay: Test A postemergence application, visual injury rating 0-100; settings: 10 days
Summary of the method: (§1)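 Compounds formulated in a non-phytotoxic solvent with surfactant are sprayed onto soil of freshly planted loam-sand pots ahead of emergence, or onto emerged plants 2-10 cm tall. After a 10-day greenhouse period, each species is scored visually for injury against untreated controls.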

[2] = tested on: barnyardgrass (Echinochloa crus-galli); assay: as above; settings: 10 days
Summary of the method: as §1

[3] = tested on: oat, wild (wild oat, Avena fatua); assay: as above; settings: 10 days
Summary of the method: as §1

[4] = tested on: blackgrass (Alopecurus myosuroides); assay: as above; settings: 10 days
Summary of the method: as §1

kochia (Bassia scoparia) [5] = assay: as above; settings: 10 days
Summary of the method: as §1

[6] = tested on: galium (catchweed bedstraw, Galium aparine); assay: as above; settings: 10 days
Summary of the method: as §1

soybean (Glycine max) [7] = assay: as above; settings: 10 days
Summary of the method: as §1

[8] = tested on: ryegrass, Italian (italian ryegrass, Lolium multiflorum); assay: as above; settings: 10 days
Summary of the method: as §1

[9] = tested on: ragweed (common ragweed, Ambrosia artemisiifolia); assay: as above; settings: 10 days
Summary of the method: as §1

[10] = tested on: horseweed (Erigeron canadensis); assay: as above; settings: 10 days
Summary of the method: as §1

[11] = tested on: wheat (Triticum aestivum); assay: as above; settings: 10 days
Summary of the method: as §1

corn (Zea mays) [12] = assay: as above; settings: 10 days
Summary of the method: as §1

[13] = tested on: palmer (palmer amaranth, palmer pigweed, Amaranthus palmeri); assay: as above; settings: 10 days
Summary of the method: as §1

[14] = tested on: green foxtail (Setaria viridis); assay: Test A preemergence soil spray, visual injury rating 0-100; settings: 10 days, 0 = no effect, 100 = complete control
Summary of the method: as §1

[15] = tested on: barnyardgrass (Echinochloa crus-galli); assay: as above; settings: 10 days, 0 = no effect, 100 = complete control
Summary of the method: as §1

[16] = tested on: oat, wild (wild oat, Avena fatua); assay: as above; settings: 10 days, 0 = no effect, 100 = complete control
Summary of the method: as §1

[17] = tested on: blackgrass (Alopecurus myosuroides); assay: as above; settings: 10 days, 0 = no effect, 100 = complete control
Summary of the method: as §1

kochia (Bassia scoparia) [18] = assay: as above; settings: 10 days, 0 = no effect, 100 = complete control
Summary of the method: as §1

soybean (Glycine max) [19] = assay: as above; settings: 10 days, 0 = no effect, 100 = complete control
Summary of the method: as §1

[20] = tested on: ryegrass, Italian (italian ryegrass, Lolium multiflorum); assay: as above; settings: 10 days, 0 = no effect, 100 = complete control
Summary of the method: as §1

[21] = tested on: ragweed (common ragweed, Ambrosia artemisiifolia); assay: as above; settings: 10 days, 0 = no effect, 100 = complete control
Summary of the method: as §1

[22] = tested on: wheat (Triticum aestivum); assay: as above; settings: 10 days, 0 = no effect, 100 = complete control
Summary of the method: as §1

corn (Zea mays) [23] = assay: as above; settings: 10 days, 0 = no effect, 100 = complete control
Summary of the method: as §1

[24] = tested on: palmer (palmer amaranth, palmer pigweed, Amaranthus palmeri); assay: as above; settings: 10 days, 0 = no effect, 100 = complete control
Summary of the method: as §1

[25] = tested on: ducksalad (Heteranthera limosa); assay: Test B flooded paddy test, visual plant response rating 0-100; settings: 250 g ai/ha, Flood, applied to paddy water, evaluated after 13 days
Summary of the method: (§2)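 Each species was raised to two leaves before flooding to a 3 cm depth and dosing the water with compound. Injury was assessed by eye after 13 days under greenhouse conditions.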

[26] = tested on: barnyardgrass (Echinochloa crusgalli); assay: as above; settings: 250 g ai/ha, Flood, applied to paddy water, evaluated after 13 days
Summary of the method: as §2

rice (Oryza sativa) = assay: as above; settings: 250 g ai/ha, Flood, applied to paddy water, evaluated after 13 days
Summary of the method: as §2

[27] = tested on: sedge, umbrella (small-flower umbrella sedge, Cyperus difformis); assay: as above; settings: 250 g ai/ha, Flood, applied to paddy water, evaluated after 13 days
Summary of the method: as §2

[28] = 31 g ai/ha, postemergence, 0 = no effect, 100 = complete control
[29] = Postemergence, 125 g ai/ha, 0 is no effect, 100 is complete control

COC(=O)C1=CCC(NC(=O)C2(C)CN(c3cc(F)cc(F)c3)C(=O)O2)C1 (stereo not shown) [Compound 21]
40: Ryegrass, Italian plant response rating (0 to 100 scale) [8, 29] | Ragweed plant response rating (0-100) [9, 28] | Amaranth, Palmer plant response rating (0-100) ([24]; 31 g ai/ha)
0: Blackgrass plant response rating (0-100) ([17]; 31 g ai/ha) | Kochia plant response rating (0-100) (kochia (Bassia scoparia) [18]; 31 g ai/ha)
20: Horseweed plant response rating (0-100) [10, 28]
60: Amaranth, Palmer plant response rating (0-100) [13, 28] | Oat, Wild plant response rating (0-100) ([16]; 31 g ai/ha) | Corn plant response rating (0-100) (corn (Zea mays) [23]; 31 g ai/ha)
95: Plant response rating, Sedge, Umbrella (0 to 100 scale, 0 is no effect and 100 is complete control) [27]
90: Foxtail, Green plant response rating (0-100) [1, 28] | Foxtail, Green plant response rating (0 to 100 scale) [1, 29] | Oat, Wild plant response rating (0-100) [3, 28] | Blackgrass plant response rating (0-100) [4, 28] | Soybean plant response rating (0 to 100 scale) (soybean (Glycine max) [7]; [29]) | Ryegrass, Italian plant response rating (0-100) [8, 28] | Wheat plant response rating (0-100) [11, 28] | Wheat plant response rating (0 to 100 scale) [11, 29] | Amaranth, Palmer / Pigweed, Palmer plant response rating (0 to 100 scale) [13, 29] | Foxtail, Green plant response rating (0-100) ([14]; 31 g ai/ha) | Blackgrass plant response rating (0 to 100 scale) ([17]; 125 g ai/ha) | Kochia plant response rating (0 to 100 scale) (kochia (Bassia scoparia) [18]; 125 g ai/ha) | Ryegrass, Italian plant response rating (0 to 100 scale) ([20]; 125 g ai/ha) | Wheat plant response rating (0 to 100 scale) ([22]; 125 g ai/ha) | Corn plant response rating (0 to 100 scale) (corn (Zea mays) [23]; 125 g ai/ha) | Plant response rating, Ducksalad (0 to 100 scale, 0 is no effect and 100 is complete control) [25] | Plant response rating, Barnyardgrass (0 to 100 scale, 0 is no effect and 100 is complete control) [26] | Plant response rating, Rice (0 to 100 scale, 0 is no effect and 100 is complete control) (rice (Oryza sativa))
100: Barnyardgrass plant response rating (0-100) [2, 28] | Barnyardgrass plant response rating (0 to 100 scale) [2, 29] | Oat, Wild plant response rating (0 to 100 scale) [3, 29] | Blackgrass plant response rating (0 to 100 scale) [4, 29] | Corn plant response rating (0-100) (corn (Zea mays) [12]; [28]) | Corn plant response rating (0 to 100 scale) (corn (Zea mays) [12]; [29]) | Foxtail, Green plant response rating (0 to 100 scale) ([14]; 125 g ai/ha) | Barnyardgrass plant response rating (0 to 100 scale) ([15]; 125 g ai/ha) | Amaranth, Palmer plant response rating (0 to 100 scale) ([24]; 125 g ai/ha)
50: Barnyardgrass plant response rating (0-100) ([15]; 31 g ai/ha) | Soybean plant response rating (0-100) (soybean (Glycine max) [19]; 31 g ai/ha) | Ryegrass, Italian plant response rating (0-100) ([20]; 31 g ai/ha)
80: Kochia plant response rating (0-100) (kochia (Bassia scoparia) [5]; [28]) | Kochia plant response rating (0 to 100 scale) (kochia (Bassia scoparia) [5]; [29]) | Galium plant response rating (0-100) [6, 28] | Galium plant response rating (0 to 100 scale) [6, 29] | Soybean plant response rating (0-100) (soybean (Glycine max) [7]; [28]) | Oat, Wild plant response rating (0 to 100 scale) ([16]; 125 g ai/ha) | Soybean plant response rating (0 to 100 scale) (soybean (Glycine max) [19]; 125 g ai/ha) | Wheat plant response rating (0-100) ([22]; 31 g ai/ha)
30: Ragweed plant response rating (0-100) ([21]; 31 g ai/ha) | Ragweed plant response rating (0 to 100 scale) ([21]; 125 g ai/ha)
70: Ragweed plant response rating (0 to 100 scale) [9, 29] | Horseweed plant response rating (0 to 100 scale) [10, 29]
